Data reported in patent US12708624B2, “Methods of treating pulmonary fibrosis” (Amplia Therapeutics Limited, priority 2020, dated 2026).
One block for each molecule: values may come before it.

What was measured:
off-target kinase = conditions: literature; cited from earlier work
[1] = exposure following oral dosing in rats
rat hepatocytes = assay: metabolites upon exposure to rat hepatocytes
[2] = system: bleomycin-induced lung fibrosis; assay: bleomycin-induced lung fibrosis, prevention model; format: in vivo, C57BL/6 mice; conditions: for lung damage (Ashcroft score): day 23, vs vehicle; for airways resistance (AHR): vs vehicle
Experimental: (§1) FIG. 1. Protocols used to assess the ability of the compound of Formula I to prevent or treat lung fibrosis induced by intratracheal bleomycin (30 μl; 0.05 U/mouse) or PBS (30 μl; vehicle control).
FIG. 3. Prevention Protocol. a) Measurement of mouse lung fibrosis on day 23 after treatment with PBS, bleomycin and vehicle, bleomycin and the compound of formula I 40 mg/kg or 80 mg/kg (n=8 mice per group). (a) The Ashcroft score was used to obtain a semi quantitative analysis of fibrosis (n=4 mice per group). (b) Acid-soluble collagen content in the mouse lung (n=8 mice per group).
(§2) FIG. 5. Measurements of airways hyper-responsiveness (AHR) after methacholine challenge in the mouse lung. Panels (a)-(d) prevention protocol at day 23 after a single intra-tracheal dose with PBS or bleomycin and oral dosing with the compound of formula I as indicated. Panels (e)-(h) treatment protocol at day 22 after a single intra-tracheal dose with PBS or bleomycin and oral dose with the compound of formula I as indicated. Panels (a, e) show airways resistance, (b, f) transpulmonary resistance, (c, g) elastance, and (d, h) compliance following challenge with 10 mg/ml methacholine.
(§3) Lung fibrosis in female C57BL/6 mice aged between 6-8 weeks (ARC, Perth, Australia) was induced by a single intra-tracheal dose of bleomycin (0.05 U/mouse). Control mice received 30 μl of buffered saline.
Mice in the prevention study were dosed orally once daily from 24 hours post bleomycin administration until day 22 with either 200 μl of vehicle (Sterile water containing 0.5% (w/v) hydroxypropylmethylcellulose, 0.5% (v/v) benzyl alcohol and 0.4% (v/v) Tween 80), or the compound of Formula I at a dosage of 40 mg/kg or 80 mg/kg by oral gavage.
(§4) There were eight mice per group for all experiments and all mice were weighed daily during administration of the treatments.

dog hepatocytes = assay: metabolites upon exposure to dog hepatocytes
primate hepatocytes = assay: metabolites upon exposure to primate hepatocytes
467 other kinases = assay: KINOMEScan assay; format: binding; conditions: tested at 1 micromolar; compared to 467 other kinases
human hepatocytes = assay: metabolites upon exposure to human hepatocytes
[3] = exposure following oral dosing in mice
[4] = system: bleomycin-induced lung fibrosis; assay: bleomycin-induced lung fibrosis, treatment model; format: in vivo, C57BL/6 mice
Experimental: as §1
FIG. 4. […] (a) The Ashcroft score was used to obtain a semi quantitative analysis of fibrosis (n=4 mice per group). (b) Acid-soluble collagen content in the mouse lung (n=8 mice per group).
as §2, §3, §4

common cytochrome P450s = assay: inhibition of common cytochrome P450s
[5] = exposure following oral dosing in dogs
[6] = system: idiopathic pulmonary fibrosis; conditions: cited from earlier work; for reduction in the rate of decline in FVC: patients with mild or moderate FVC impairment at baseline, over 1 year of treatment
[7] = patients with IPF; cited from earlier work

SMILES: CN(c1ncccc1CNc1nc(Nc2ccc3c(c2)CC(=O)N3)ncc1C(F)(F)F)S(C)(=O)=O [PF-562,271]
off-target kinase activity (off-target kinase): significant off-target kinase activity

SMILES: CNC(=O)c1ccccc1Nc1nc(Nc2ccc(N3CCOCC3)cc2OC)ncc1Cl [TAE226]
off-target kinase activity (off-target kinase): significant off-target kinase activity

exposure dose proportionality [1]: dose-proportional exposures
unique metabolites (rat hepatocytes): no unique metabolites
unique metabolites (dog hepatocytes): no unique metabolites
unique metabolites (primate hepatocytes): no unique metabolites
unique metabolites (human hepatocytes): no unique metabolites
exposure dose proportionality [3]: dose-proportional exposures
inhibition of common cytochrome P450s (common cytochrome P450s): no detectable inhibition
exposure dose proportionality [5]: dose-proportional exposures
SMILES: COc1cc(C2CCN(C)CC2)ccc1Nc1ncc(C(F)(F)F)c(CCc2ccccc2CC(N)=O)n1 [compound of Formula I]
other measures of AHR (transpulmonary resistance, elastance, compliance) ([2]; 10 mg/ml methacholine): did not significantly inhibit other measures of AHR
lung damage (Ashcroft score) ([2]; 40 mg/kg oral once daily): attenuated bleomycin-induced lung damage
airways resistance (AHR) ([2]; 40 mg/kg, 10 mg/ml methacholine): significantly decreased airways resistance
lung damage (Ashcroft score) ([2]; 80 mg/kg oral once daily): not at 80 mg/kg attenuated bleomycin-induced lung damage
airways resistance (AHR) ([2]; 80 mg/kg, 10 mg/ml methacholine): significantly decreased airways resistance
S10 selectivity score (467 other kinases): 0.02
airways resistance (AHR) ([4]; 10 mg/ml methacholine, vs vehicle): no effect on airways resistance
all other measures of AHR (transpulmonary resistance, elastance, compliance) ([4]; dosing from day 7 after bleomycin, 10 mg/ml methacholine, vs vehicle): effectively reversed the AHR
lung damage (Ashcroft score) ([4]; dosing from day 7 after bleomycin, day 22, vs vehicle): did not significantly alter bleomycin-induced lung damage

SMILES: COC(=O)c1ccc2c(c1)NC(=O)/C2=C(\Nc1ccc(N(C)C(=O)CN2CCN(C)CC2)cc1)c1ccccc1 [nintedanib]
deterioration of FVC on extended treatment ([6]; extended treatment for up to four years): sustained decline in deterioration of FVC
reduction in the rate of decline in FVC [6]: approximately 50%
side effects / most common adverse effects [7]: nausea and diarrhea

SMILES: Cc1ccc(=O)n(-c2ccccc2)c1 [pirfenidone]
reduction in the rate of decline in FVC [6]: approximately 50%
side effects / most common adverse effects [7]: diarrhea, photosensitivity and rash
